Assay results from ChEMBL document CHEMBL4680141, “Novel benzimidazole-acrylonitrile hybrids and their derivatives: Design, synthesis and antimycobacterial activity” (2020).
≈ marks a conversion by molar mass, not a printed value.

System: Mycobacterium tuberculosis
Assay: Antimycobacterial activity against Mycobacterium tuberculosis H37Rv assessed as inhibition of bacterial growth incubated for 7 days by MABA assay
Format: functional
Conditions: 168 h, time 7 day

SMILES	MIC
N#C/C(=C\c1ccc(N2CCN(c3ccccc3)CC2)cc1)c1nc2ccccc2[nH]1	6.25 µg/mL (≈ 15.4 µM)
CC(=O)N1CCN(c2ccc(/C=C(\C#N)c3nc4ccccc4[nH]3)cc2)CC1	12.5 µg/mL (≈ 33.7 µM)
N#C/C(=C\c1ccc(N2CCN(c3ccc(Br)cc3)CC2)cc1)c1nc2ccccc2[nH]1	> 25 µg/mL
N#C/C(=C\c1ccc(N2CCN(C3CCCCC3)CC2)cc1)c1nc2ccccc2[nH]1	> 25 µg/mL
COc1cccc(N2CCN(c3ccc(/C=C(\C#N)c4nc5ccccc5[nH]4)cc3)CC2)c1	> 25 µg/mL
N#CC(Cc1ccc(N2CCN(c3ccccc3)CC2)cc1)c1nc2ccccc2[nH]1 (stereo not given)	> 25 µg/mL
COc1ccc(N2CCN(c3ccc(CC(C#N)c4nc5ccccc5[nH]4)cc3)CC2)cc1 (stereo not given)	> 25 µg/mL
N#C/C(=C\c1ccc(N2CCN(Cc3ccccc3)CC2)cc1)c1nc2ccccc2[nH]1	> 25 µg/mL
NNC(=O)c1ccncc1 [ISONIAZID]	0.05 µg/mL (≈ 0.365 µM)
Cc1ccc(N2CCN(c3ccc(CC(C#N)c4nc5ccccc5[nH]4)cc3)CC2)cc1 (stereo not given)	> 25 µg/mL
CC[C@@H](CO)NCCN[C@@H](CC)CO [ETHAMBUTOL]	1.56 µg/mL (≈ 7.64 µM)
CN1CCN(c2ccc(/C=C(\C#N)c3nc4ccccc4[nH]3)cc2)CC1	> 25 µg/mL
N#C/C(=C\c1ccc(N2CCN(c3ccc(F)cc3)CC2)cc1)c1nc2ccccc2[nH]1	> 25 µg/mL
N#C/C(=C\c1ccc(N2CCN(c3cccc(Cl)c3)CC2)cc1)c1nc2ccccc2[nH]1	> 25 µg/mL
CO[C@H]1/C=C/O[C@@]2(C)Oc3c(C)c(O)c4c(O)c(c(/C=N/N5CCN(C)CC5)c(O)c4c3C2=O)NC(=O)/C(C)=C\C=C\[C@H](C)[C@H](O)[C@@H](C)[C@@H](O)[C@@H](C)[C@H](OC(C)=O)[C@@H]1C [RIFAMPIN]	0.1 µg/mL (≈ 0.122 µM)
N#C/C(=C\c1ccc(N2CCN(Cc3ccc(F)cc3)CC2)cc1)c1nc2ccccc2[nH]1	25 µg/mL (≈ 57.1 µM)
COc1ccc(N2CCN(c3ccc(/C=C(\C#N)c4nc5ccccc5[nH]4)cc3)CC2)cc1	6.25 µg/mL (≈ 14.4 µM)
Cc1ccc(N2CCN(c3ccc(/C=C(\C#N)c4nc5ccccc5[nH]4)cc3)CC2)cc1	0.78 µg/mL (≈ 1.86 µM)
N#C/C(=C\c1ccc(N2CCN(c3ccc(Cl)cc3)CC2)cc1)c1nc2ccccc2[nH]1	> 25 µg/mL

System: Mycobacterium tuberculosis
Assay: Antimycobacterial activity against dormant form of Mycobacterium tuberculosis H37Rv assessed as log fold reduction in bacterial count at 10 ug/ml under nutrient starvation condition after 7 days by MPN assay
Format: functional
Conditions: dose 10 µg/ml; time 7 day

SMILES	FC
NNC(=O)c1ccncc1 [ISONIAZID]	1.5
COc1c(N2C[C@@H]3CCCN[C@@H]3C2)c(F)cc2c(=O)c(C(=O)O)cn(C3CC3)c12 [MOXIFLOXACIN]	1.5
O=C(O)c1cn(C2CC2)c2cc(N3CCNCC3)c(F)cc2c1=O [CIPROFLOXACIN]	1.5
CO[C@H]1/C=C/O[C@@]2(C)Oc3c(C)c(O)c4c(O)c(c(/C=N/N5CCN(C)CC5)c(O)c4c3C2=O)NC(=O)/C(C)=C\C=C\[C@H](C)[C@H](O)[C@@H](C)[C@@H](O)[C@@H](C)[C@H](OC(C)=O)[C@@H]1C [RIFAMPIN]	1.5
Cc1ccc(N2CCN(c3ccc(/C=C(\C#N)c4nc5ccccc5[nH]4)cc3)CC2)cc1	2.8

System: Mycobacterium tuberculosis
Assay: Antimycobacterial activity against Mycobacterium tuberculosis H37Rv assessed as inhibition of bacterial growth by MABA assay
Format: functional
Conditions: not given

SMILES	MIC
N#C/C(=C\c1ccccc1)n1nnc2ccccc21	6.25 µg/mL (≈ 25.4 µM)
